The values below come from patent US20230150924A1, “NOVEL COMPOUND HAVING CANCER METASTASIS INHIBITORY ACTIVITY, PREPARATION METHOD THEREFOR, AND PHARMACEUTICAL COMPOSITION FOR INHIBITING CANCER METASTASIS AND INVASION OR TREATING COLORECTAL CANCER, COMPRISING COMPOUND” (CELLGENTEK CO., LTD., priority 2019, published 2023).

Structures are written as SMILES. Like-named read-outs stand apart in the source and are kept apart here.

Test [1] relates to invasion of colorectal cancer cells. As to the kind of experiment: In vivo relative invation (invasion; EV and KITENIN controls, no method described). Particulars: relative to EV (=1); KIT = KITENIN.
Another test relates to KAI1 promoter. The test is described as follows: KAI1 promoter luciferase reporter assay in transfected Caco2 cells. Particulars: Homo sapiens, Caco-2, 16 h, read-out: Relative KAI promoter activity. The class given is cell-based, human. As to the method:
Experiments were conducted to evaluate the metastasis-related promoter activity-increasing effects of the compounds according to the present invention. Specifically, the KAI1 promoter reporter vector was used. In this case, the pRL-TK vector, a vector expressing renilla luciferase, was used as an internal control indicating the transfection efficiency in each transfected well.
First, 24 hours before transfection, 2×10^6 human colon cancer cell line, Caco2) cells were cultured in 10 ml of DMEM containing 10% FBS and 1% penicillin/streptomycin on a 100-mm-diameter plate, and then transformed with 5 μg of a pRL-TK vector mixture containing a transfection reagent and the KAI1 promoter, and then cultured in a 5% CO2 incubator at 37° C. for 48 hours. Thereafter, the adherent cells were detached using trypsin and counted using a hemacytometer, and then 5×10^3 transfected Caco2 cells in 100 μl of DMEM containing 10% FBS and 1% penicillin/streptomycin were seeded into each well of a 96-well plate and cultured in a 5% CO2 incubator at 37° C. for 24 hours. Next, 1 μM of each of the 305 compounds prepared in Examples 1 to 305 was added to each well, and after 16 hours, 100 μl of a lysis buffer for analysis containing a luciferase substrate was added, and the cells were lysed with stirring for 20 minutes. After completion of lysis, the cells were measured for luciferase activity using a luciferase reporter assay system (Promega, USA). […] In addition, data were analyzed at a significance level of p<0.05 by one-way ANOVA (Tukey's HSD), and SPSS 17.0 (Chicago, USA) statistical program was used. In Table 14 to 20, PHA is the PHA-665752, and KIT is KITENIN.
Background: In a reporter assay the amount or activity of a reporter protein is the signal.

The mark [2] stands for this setting: 1 μM compound, 16 hours, transfected Caco2 cells, luciferase activity relative to DMSO control (=1).

As to `O=C(CNC(=O)c1cccc(C(F)(F)F)c1)c1ccccc1` [Example 31, N-(2-oxo-2-phenylethyl)-3-(trifluoromethyl)benzamide], the “In vivo relative invation” value in test [1] worked out at 0.8211. In the test with KAI1 promoter (setting [2]), the fold induction at 1 µM is 1.18.

Consider `CC(Oc1ccccc1)C(=O)N1CCC(Oc2ccccc2C(=O)NCC(=O)c2ccccc2)CC1` (centres unmarked) [Example 152, N-(2-oxo-2-phenylethyl)-2-((1-(2-phenoxypropanoyl)piperidin-4-yl)oxy)benzamide], for which, in test [1], the “In vivo relative invation” value stood at 1.16. The fold induction at 1 µM with KAI1 promoter (setting [2]) came out at 1.08.

With `O=C(CNC(=O)c1ccccc1F)c1ccc(N2CCOCC2)cc1` [Example 137, 2-fluoro-N-(2-(4-morpholinophenyl)-2-oxoethyl)benzamide], the “In vivo relative invation” value in test [1] worked out at 1.231. In addition, the fold induction at 1 µM in the test with KAI1 promoter (setting [2]) is 1.19.

On to `Cc1cc(C)cc(C(=O)NCC(=O)c2ccc(Cl)cc2)c1` [Example 83, N-(2-(4-chlorophenyl)-2-oxoethyl)-3,5-dimethylbenzamide], for which, in test [1], the “In vivo relative invation” value stood at 1.171. Further, in the test with KAI1 promoter (setting [2]), the fold induction at 1 µM came out at 0.8.

With `O=C(CNC(=O)c1ccccc1OC1CCN(C(=O)c2ccccc2C(F)(F)F)CC1)c1ccccc1` [Example 191, N-(2-oxo-2-phenylethyl)-2-((1-(2-(trifluoromethyl)benzoyl)piperidin-4-yl)oxy)benzamide], the “In vivo relative invation” value in test [1] was 1.106. Further, in the test with KAI1 promoter (setting [2]), the fold induction at 1 µM stood at 0.84.

Regarding `CN(C)c1ccc(C(=O)CNC(=O)c2cccc(C(F)(F)F)c2)cc1` [Example 113, N-(2-(4-(dimethylamino)phenyl)-2-oxoethyl)-3-(trifluoromethyl)benzamide], the “In vivo relative invation” value in test [1] is 1.167. Further, the fold induction at 1 µM in the test on KAI1 promoter (setting [2]) was 1.4.

As for `O=C(CNC(=O)C1CCCCC1)c1ccccc1` [Example 15, N-(2-oxo-2-phenylethyl)cyclohexanecarboxamide], the “In vivo relative invation” value in test [1] is 1.17. Besides, the fold induction at 1 µM in the test with KAI1 promoter (setting [2]) came to 1.74.

In the case of `O=C(COc1ccccc1C(=O)NCC(=O)c1ccccc1)Nc1ccc2c(c1)OCCO2` [Example 218, 2-(2-((2,3-dihydrobenzo[b] [1, 4]dioxin-6-yl)amino)-2-oxoethoxy)-N-(2-oxo-2-phenylethyl)benzamide], the “In vivo relative invation” value in test [1] turned out to be 1.169. Besides, in the test with KAI1 promoter (setting [2]), the fold induction at 1 µM came to 1.33.

Regarding `CN(C)c1ccc(C(=O)CNC(=O)c2ccc(F)cc2)cc1` [Example 91, N-(2-(4-(dimethylamino)phenyl)-2-oxoethyl)-4-fluorobenzamide], the “In vivo relative invation” value in test [1] is 1.058. In the test on KAI1 promoter (setting [2]), the fold induction at 1 µM came out at 2.44.

As to `CCC(=O)NCC(=O)c1ccc(N(C)C)cc1` [Example 99, N-(2-(4-(dimethylamino)phenyl)-2-oxoethyl)propionamide], the “In vivo relative invation” value in test [1] is on record as 1.134. The fold induction at 1 µM in the test with KAI1 promoter (setting [2]) was 1.71.

On to `O=C(CNC(=O)c1ccccc1OC1CCN(C(=O)c2ccccc2Cl)CC1)c1ccccc1` [Example 156, 2-((1-(2-chlorobenzoyl)piperidin-4-yl)oxy)-N-(2-oxo-2-phenylethyl)benzamide], for which, in test [1], the “In vivo relative invation” value stood at 1.158. Further, the fold induction at 1 µM in the test on KAI1 promoter (setting [2]) turned out to be 0.99.

Consider `CN(C)c1ccc(C(=O)CNC(=O)c2cccc(Cl)c2)cc1` [Example 94, 3-chloro-N-(2-(4-(dimethylamino)phenyl)-2-oxoethyl)benzamide], for which, in test [1], the “In vivo relative invation” value came to 1.096. The fold induction at 1 µM in the test on KAI1 promoter (setting [2]) was found to be 1.81.

Regarding `COCc1ccccc1C(=O)NCC(=O)c1ccc(Cl)cc1` [Example 59, N-(2-(4-chlorophenyl)-2-oxoethyl)-2-(methoxymethyl)benzamide], in test [1], the “In vivo relative invation” value amounted to 1.007. Moreover, the fold induction at 1 µM in the test with KAI1 promoter (setting [2]) amounted to 1.56.

As for `O=C(CNC(=O)c1ccccc1OC1CCN(C(=O)c2ccc(F)cc2)CC1)c1ccccc1` [Example 154, 2-((1-(4-fluorobenzoyl)piperidin-4-yl)oxy)-N-(2-oxo-2-phenylethyl)benzamide], in test [1], the “In vivo relative invation” value was 1.173. The fold induction at 1 µM with KAI1 promoter (setting [2]) worked out at 1.05.

Regarding `CN(C)c1ccc(C(=O)CNS(=O)(=O)c2ccc(F)cc2)cc1` [Example 107, N-(2-(4-(dimethylamino)phenyl)-2-oxoethyl)-4-fluorobenzenesulfonamide], the “In vivo relative invation” value in test [1] is recorded as 0.9868. For the same molecule, the fold induction at 1 µM in the test on KAI1 promoter (setting [2]) is 2.07.

Turning to `O=C(CNC(=O)c1ccccc1F)c1cccnc1` [Example 132, 2-fluoro-N-(2-oxo-2-(pyridin-3-yl)ethyl)benzamide], the “In vivo relative invation” value in test [1] was 1.226. Also, the fold induction at 1 µM in the test on KAI1 promoter (setting [2]) came to 1.18.

With `CC(=O)N1CCC(Oc2ccccc2C(=O)NCC(=O)c2ccccc2)CC1` [Example 182, 2-((1-acetylpiperidin-4-yl)oxy)-N-(2-oxo-2-phenylethyl)benzamide], the “In vivo relative invation” value in test [1] was determined as 1.095. Besides, the fold induction at 1 µM with KAI1 promoter (setting [2]) was 0.93.

For the molecule `Cc1cccc(C(=O)N2CCC(Oc3ccccc3C(=O)NCC(=O)c3ccccc3)CC2)c1` [Example 163, 2-((1-(3-methylbenzoyl)piperidin-4-yl)oxy)-N-(2-oxo-2-phenylethyl)benzamide], the “In vivo relative invation” value in test [1] is 1.163. Further, in the test with KAI1 promoter (setting [2]), the fold induction at 1 µM came to 1.1.

As for `O=C(CNC(=O)c1ccc(Cl)cc1)c1ccccc1` [Example 1, 4-chloro-N-(2-oxo-2-phenylethyl)benzamide], in test [1], the “In vivo relative invation” value came out at 0.9672. Also, the fold induction at 1 µM in the test with KAI1 promoter turned out to be 1.7.

Turning to `CCC(=O)NCC(=O)c1cccnc1` [Example 136, N-(2-oxo-2-(pyridin-3-yl)ethyl) propionamide], in test [1], the “In vivo relative invation” value was 1.297. In the test with KAI1 promoter (setting [2]), the fold induction at 1 µM was determined as 1.17.

For the molecule `Cc1ccccc1C(=O)NCC(=O)c1ccc(N(C)C)cc1` [Example 96, N-(2-(4-(dimethylamino)phenyl)-2-oxoethyl)-2-methylbenzamide], the “In vivo relative invation” value in test [1] came to 1.141. In addition, the fold induction at 1 µM with KAI1 promoter (setting [2]) amounted to 2.23.

Consider `COc1ccc(S(=O)(=O)NCC(=O)c2ccc(N3CCOCC3)cc2)cc1` [Example 150, 4-methoxy-N-(2-(4-morpholinophenyl)-2-oxoethyl)benzenesulfonamide], for which the “In vivo relative invation” value in test [1] stood at 1.071. Further, the fold induction at 1 µM in the test with KAI1 promoter (setting [2]) was determined as 1.14.

Regarding `O=C(CNC(=O)c1ccccc1OC1CCN(C(=O)c2cc(C(F)(F)F)cc(C(F)(F)F)c2)CC1)c1ccccc1` [Example 190, 2-((1-(3,5-bis(trifluoromethyl)benzoyl)piperidin-4-yl)oxy)-N-(2-oxo-2-phenylethyl)benzamide], in test [1], the “In vivo relative invation” value worked out at 1.203. In addition, in the test with KAI1 promoter (setting [2]), the fold induction at 1 µM was 0.83.

On to `C/C=C/C(=O)NCC(=O)c1cccc(OC)c1` [Example 123, (E)-N-(2-(3-methoxyphenyl)-2-oxoethyl)but-2-enamide], for which the “In vivo relative invation” value in test [1] is recorded as 1.312. In addition, in the test on KAI1 promoter (setting [2]), the fold induction at 1 µM is 1.14.

In the case of `Cc1cc(C)cc(C(=O)NCC(=O)c2ccccc2)c1` [Example 40, 3,5=dimethyl-N-(2-oxo-2-phenylethyl)benzamide], in test [1], the “In vivo relative invation” value worked out at 1.173. The fold induction at 1 µM in the test with KAI1 promoter (setting [2]) worked out at 1.

Consider `COc1cccc(C(=O)CNC(=O)c2cccc(CN3CCN(c4ccccn4)CC3)c2)c1` [Example 284, N-(2-(3-methoxyphenyl)-2-oxoethyl)-3-((4-(pyridin-2-yl)piperazin-1-yl)methyl)benzamide], for which, in test [1], the “In vivo relative invation” value is 1.276. For the same molecule, in the test with KAI1 promoter (setting [2]), the fold induction at 1 µM is 1.44.

With `CS(=O)(=O)N1CCC(Oc2ccccc2C(=O)NCC(=O)c2ccccc2)CC1` [Example 183, 2-((1-(methylsulfonyl)piperidin-4-yl)oxy)-N-(2-oxo-2-phenylethyl)benzamide], the “In vivo relative invation” value in test [1] stood at 1.194. In addition, in the test on KAI1 promoter (setting [2]), the fold induction at 1 µM turned out to be 0.96.

Regarding `O=C(CNC(=O)c1ccccc1OC1CCN(C(=O)c2ccc(F)c(F)c2)CC1)c1ccccc1` [Example 196, 2-((1-(3,4-difluorobenzoyl)piperidin-4-yl)oxy)-N-(2-oxo-2-phenylethyl)benzamide], the “In vivo relative invation” value in test [1] is recorded as 1.113. In addition, the fold induction at 1 µM in the test with KAI1 promoter (setting [2]) was 0.84.

For `CC(C)(C)OC(=O)N1CCN(Cc2ccc(C(=O)NCC(=O)c3ccccc3)cc2)CC1` [Example 269, tert-butyl 4-(4-((2-oxo-2-phenylethyl)carbamoyl)benzyl) piperazine-1-carboxylate], in test [1], the “In vivo relative invation” value turned out to be 1.163. In addition, the fold induction at 1 µM in the test with KAI1 promoter (setting [2]) is 1.38.

Take `O=C(CNS(=O)(=O)c1cccc([N+](=O)[O-])c1)c1ccccc1` [Example 21, 3-nitro-N-(2-oxo-2-phenylethyl)benzenesulfonamide]: the “In vivo relative invation” value in test [1] is given as 1.099. Further, in the test with KAI1 promoter (setting [2]), the fold induction at 1 µM stood at 0.99.

With `C=CC(=O)NCC(=O)c1ccccc1` [Example 10, N-(2-oxo-2-phenylethyl) acrylamide], in test [1], the “In vivo relative invation” value turned out to be 0.9099. In the test on KAI1 promoter (setting [2]), the fold induction at 1 µM amounted to 1.08.
